Test results published in patent publication US11485731B2, “Compounds and methods useful in the treatment of a PRMT5-mediated disorder” (ARGONAUT THERAPEUTICS LIMITED, priority 2017, dated 2022).

Biological target: human PRMT5/MEP50 (Homo sapiens (Human), UniProt O14744)
Assay: PRMT5 chemiluminescent assay
Assay type: biochemical
Conditions: human PRMT5/MEP50 expressed in HEK293 cells; biotinylated histone peptides; Histone H4 monomethyl R3 antibody; chemiluminescent readout
Outline: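 HEK293-expressed PRMT5/MEP50, diluted to 5 ng/µL in assay buffer, reacted 60 min with rotation on plate-bound biotinylated histone peptides. Product was detected with anti-histone H4 R3 monomethyl antibody (60 min), then HRP secondary (30 min) and chemiluminescent substrate. IC50 values came from the chemiluminescence signal.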

Sequence of human PRMT5/MEP50 (O14744 whole entry): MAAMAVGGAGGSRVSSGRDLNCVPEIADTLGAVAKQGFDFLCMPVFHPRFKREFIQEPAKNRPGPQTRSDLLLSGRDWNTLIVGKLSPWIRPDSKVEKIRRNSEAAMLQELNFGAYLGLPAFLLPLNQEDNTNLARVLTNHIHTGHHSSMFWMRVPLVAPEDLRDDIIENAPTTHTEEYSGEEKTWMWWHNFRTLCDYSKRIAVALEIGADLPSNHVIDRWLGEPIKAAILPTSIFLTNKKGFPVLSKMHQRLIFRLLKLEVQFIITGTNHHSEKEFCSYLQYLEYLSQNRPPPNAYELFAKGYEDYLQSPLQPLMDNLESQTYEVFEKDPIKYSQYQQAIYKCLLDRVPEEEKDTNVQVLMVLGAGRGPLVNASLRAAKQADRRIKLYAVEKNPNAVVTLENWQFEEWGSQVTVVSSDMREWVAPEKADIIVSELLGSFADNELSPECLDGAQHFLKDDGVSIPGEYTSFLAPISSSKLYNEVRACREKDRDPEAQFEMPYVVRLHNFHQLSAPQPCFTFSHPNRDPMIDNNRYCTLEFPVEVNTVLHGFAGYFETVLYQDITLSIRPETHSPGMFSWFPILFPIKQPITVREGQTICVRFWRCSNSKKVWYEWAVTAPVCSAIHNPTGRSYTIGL
Sequence of human PRMT5/MEP50 (Q9BQA1 whole entry partner): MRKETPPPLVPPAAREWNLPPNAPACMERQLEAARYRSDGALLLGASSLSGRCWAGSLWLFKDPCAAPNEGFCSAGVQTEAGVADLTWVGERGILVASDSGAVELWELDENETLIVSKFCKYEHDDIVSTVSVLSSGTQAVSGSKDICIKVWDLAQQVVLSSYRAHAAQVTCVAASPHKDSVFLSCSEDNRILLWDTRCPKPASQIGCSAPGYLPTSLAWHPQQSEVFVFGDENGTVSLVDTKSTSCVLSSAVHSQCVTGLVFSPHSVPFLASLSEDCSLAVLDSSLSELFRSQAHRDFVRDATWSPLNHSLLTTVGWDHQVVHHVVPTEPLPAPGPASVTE

Row | IC50 | Compound
1 | 4440 nM | O=C(NC[C@H](O)CN1CCc2ccccc2C1)N1CCCC(n2ccnc2)C1 (stereo partly drawn) [Example 1BL, N-((S)-3-(3,4-dihydroisoquinolin-2(1H)-yl)-2-hydroxypropyl)-3-(1H-imidazol-1-yl)piperidine-1-carboxamide]
2 | 490 nM | Cn1cc(C2CCCN(C(=O)NC[C@H](O)CN3CCc4ccccc4C3)C2)ccc1=O (stereo partly drawn) [Example 1BR, N-((S)-3-(3,4-dihydroisoquinolin-2(1H)-yl)-2-hydroxypropyl)-3-(1-methyl-6-oxo-1,6-dihydropyridin-3-yl)piperidine-1-carboxamide]
3 | 31200 nM | O=C(NC[C@H](O)CN1CCc2ccccc2C1)N1CCC[S+]([O-])CC1 (stereo partly drawn) [Example 1AU, N-((S)-3-(3,4-dihydroisoquinolin-2(1H)-yl)-2-hydroxypropyl)-1,4-thiazepane-4-carboxamide 1-oxide]
4 | 58 nM | O=C(NC[C@H](O)CN1CCc2ccccc2C1)N1CCCC(C2CCSCC2)C1 (stereo partly drawn) [Example 1CA, N-((S)-3-(3,4-dihydroisoquinolin-2(1H)-yl)-2-hydroxypropyl)-3-(tetrahydro-2H-thiopyran-4-yl)piperidine-1-carboxamide]
5 | 342 nM | O=C(OCCCN1CCc2ccccc2C1)N1CCC(c2ccccc2)C1 (centres unmarked) [Example 7, 3-(3,4-dihydroisoquinolin-2(1H)-yl)propyl 3-phenylpyrrolidine-1-carboxylate]
6 | 81 nM | O=C(OC[C@H](O)CN1CCc2ccccc2C1)N1CCC(c2ccccn2)C1 (stereo partly drawn) [Example 4R, (R)-3-(3,4-dihydroisoquinolin-2(1H)-yl)-2-hydroxypropyl 3-(pyridin-2-yl)pyrrolidine-1-carboxylate]
7 | 97 nM | O=C(NC[C@H](O)CN1CCc2ccccc2C1)N1CCC(c2ccccn2)C1 (stereo partly drawn) [Example 1BA, N-((S)-3-(3,4-dihydroisoquinolin-2(1H)-yl)-2-hydroxypropyl)-3-(pyridin-2-yl)pyrrolidine-1-carboxamide]
8 | 192 nM | O=C(OCC(O)CN1CCc2ccccc2C1)N1CCc2ccccc2C1 (centres unmarked) [Example 3A, 3-(3,4-dihydroisoquinolin-2(1H)-yl)-2-hydroxypropyl 3,4-dihydroisoquinoline-2(1H)-carboxylate]
9 | 1240 nM | O=C(NCC(O)CN1CCc2ccccc2C1)N1CCN(c2ccccc2)CC1 (centres unmarked) [Example 1C, N-[2-hydroxy-3-(1,2,3,4-tetrahydroisoquinolin-2-yl)propyl]-4-phenylpiperazine-1-carboxamide]
10 | 457 nM | O=C(NCC(O)CN1CCc2ccccc2C1)N1CCC(c2ccccc2)CC1 (centres unmarked) [Example 1F, N-[2-hydroxy-3-(1,2,3,4-tetrahydroisoquinolin-2-yl)propyl]-4-phenylpiperidine-1-carboxamide]
11 | 17 nM | O=C(NCC(O)CN1CCc2ccccc2C1)N1CCCCC(c2ccccc2)C1 (centres unmarked) [Example 1CO, N-(3-(3,4-dihydroisoquinolin-2(1H)-yl)-2-hydroxypropyl)-3-phenylazepane-1-carboxamide]
12 | 939 nM | O=C(NCCCN1CCc2ccccc2C1)N1CCC(c2ccccc2)C1 (centres unmarked) [Example 6A, N-(3-(3,4-dihydroisoquinolin-2(1H)-yl)propyl)-3-phenyl pyrrolidine-1-carboxamide]
13 | 58200 nM | CS(=O)(=O)N1CCCN(C(=O)NC[C@@H](O)CN2CCc3ccccc3C2)CC1 [Example 1BD, (R)-N-(3-(3,4-dihydroisoquinolin-2(1H)-yl)-2-hydroxypropyl)-4-(methylsulfonyl)-1,4-diazepane-1-carboxamide]
14 | 13 nM | O=C(OC[C@H](O)CN1CCc2ccccc2C1)N1CC[C@H](c2ccccc2)C1 [Example 4L, (R)-3-(3,4-dihydroisoquinolin-2(1H)-yl)-2-hydroxypropyl (R)-3-phenylpyrrolidine-1-carboxylate]
15 | 12300 nM | O=C(NC[C@H](O)CN1CCc2ccccc2C1)N1CCC(N2CCOCC2)C1 (stereo partly drawn) [Example 1CD, N-((S)-3-(3,4-dihydroisoquinolin-2(1H)-yl)-2-hydroxypropyl)-3-morpholinopyrrolidine-1-carboxamide]
16 | 1870 nM | O=C(NCC(O)CN1CCc2ccccc2C1)N1CCN(Cc2ccccc2)CC1 (centres unmarked) [Example 1D, 4-benzyl-N-[2-hydroxy-3-(1,2,3,4-tetrahydroisoquinolin-2-yl)propyl]piperazine-1-carboxamide]

Row | Compound | IC50
17 | O=C(NC[C@@H](O)CN1CCc2ccccc2C1)N1CCC[C@@H](c2ccccc2)C1 [Example 1AI, (S)-N-((R)-3-(3,4-dihydroisoquinolin-2(1H)-yl)-2-hydroxypropyl)-3-phenylpiperidine-1-carboxamide] | 3220 nM
18 | O=C(NC[C@H](O)CN1CCc2ccccc2C1)N1CCC(C(=O)N2C3CCC2COC3)CC1 [Example 1AZ, 4-(3-oxa-8-azabicyclo[3.2.1]octane-8-carbonyl)-N-((S)-3-(3,4-dihydroisoquinolin-2(1H)-yl)-2-hydroxypropyl)piperidine-1-carboxamide] | 159 nM
19 | O=C(NC[C@H](O)CN1CCc2ccccc2C1)N1CCC[C@H](c2ccccc2)C1 [Example 1AO, (R)-N-((S)-3-(3,4-dihydroisoquinolin-2(1H)-yl)-2-hydroxypropyl)-3-phenylpiperidine-1-carboxamide] | 9 nM
20 | O=C(NCC(O)CN1CCc2ccccc2C1)N1CCC(C(=O)N2C3CCC2COC3)CC1 (centres unmarked) [Example 1R, 4-(3-oxa-8-azabicyclo[3.2.1]octane-8-carbonyl)-N-(3-(3,4-dihydroisoquinolin-2(1H)-yl)-2-hydroxypropyl)piperidine-1-carboxamide] | 11 nM
